The values that follow come from ChEMBL document CHEMBL1152302, “Dihydropyrrole[2,3-d]pyridine derivatives as novel corticotropin-releasing factor-1 antagonists: mapping of the receptor binding pocket by in silico docking studies” (J Med Chem, 2008).

The structures appear in SMILES notation.

This assay has as its target T1, Corticotropin-releasing factor receptor 1 (Homo sapiens, UniProt P34998).
T1 sequence (P34998 whole entry): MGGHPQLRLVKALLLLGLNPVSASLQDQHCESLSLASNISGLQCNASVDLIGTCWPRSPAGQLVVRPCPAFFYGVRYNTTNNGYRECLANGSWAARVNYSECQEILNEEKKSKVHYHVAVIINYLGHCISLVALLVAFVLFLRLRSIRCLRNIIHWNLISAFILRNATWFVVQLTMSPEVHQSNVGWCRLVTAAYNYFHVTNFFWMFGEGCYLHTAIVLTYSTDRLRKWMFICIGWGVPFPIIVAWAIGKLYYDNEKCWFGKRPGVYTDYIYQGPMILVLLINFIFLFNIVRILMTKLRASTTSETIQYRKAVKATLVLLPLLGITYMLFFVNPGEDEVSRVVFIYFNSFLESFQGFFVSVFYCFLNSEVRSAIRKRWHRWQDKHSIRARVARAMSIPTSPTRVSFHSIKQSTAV
The assay is described as follows: Displacement of [125I]sauvagine from human recombinant CRF1 receptor expressed in CHO cells by SPA. The class given is cell-based. On the technique in general: Displacement assays read how much labelled ligand stays bound in the presence of the test substance.
Regarding `Cc1cc(-n2ccc(-c3nccs3)n2)c2c(n1)N(c1ccc(C#N)cc1-c1cccs1)CC2`, the IC50 – broadly, the concentration at which inhibition is half-maximal – is 0.851 µM.
For `COc1ccc(N2CCc3c(-n4ccc(-c5nccs5)n4)cc(C)nc32)c(OC)n1` the value was 0.214 µM; for `Cc1cc(-n2ccc(-c3nccs3)n2)c2c(n1)N(c1ccc(F)cc1[N+](=O)[O-])CC2`, over 10 µM; for `Cc1cc(-n2ccc(-c3nccs3)n2)c2c(n1)N(c1ccc(Cl)cc1[N+](=O)[O-])CC2`, over 10 µM.
Next, `COc1ccc(N2CCc3c(-n4ccc(-c5nccs5)n4)cc(C)nc32)c([N+](=O)[O-])c1`: over 10 µM.
Next, `Cc1cc(-n2ccc(-c3nccs3)n2)c2c(n1)N(c1ccc(S(C)(=O)=O)cc1S(C)(=O)=O)CC2`: 3.89 µM; `Cc1cc(-n2ccc(-c3nccs3)n2)c2c(n1)N(c1ccc([N+](=O)[O-])cc1C(F)(F)F)CC2`: 0.0589 µM.
As for `Cc1cc(-n2ccc(-c3ccccn3)n2)c2c(n1)N(c1ccc(C#N)cc1Cl)CC2`, the half-maximal inhibitory concentration (IC50) is 0.363 µM.
Take `Cc1cc(-n2ccc(-c3ccccn3)n2)c2c(n1)N(c1ccc(C#N)cc1C)CC2`: the IC50 is 0.224 µM.
Next, `Cc1cc(-n2ccc(-c3nccs3)n2)c2c(n1)N(c1cnc(N(C)C)cc1C)CC2`: 0.257 µM; `Cc1cc(-n2ccc(-c3nccs3)n2)c2c(n1)N(c1ccc(O)cc1C)CC2`: 3.47 µM; `Cc1cc(-n2ccc(-c3nccs3)n2)c2nc(C(F)(F)F)n(-c3ccc(C(F)(F)F)cc3C(F)(F)F)c2n1`: over 10 µM.
Consider `Cc1cc(-n2ccc(-c3nccs3)n2)c2c(n1)N(c1ccc(C#N)cc1C#N)CC2`, for which the IC50 is 7.41 µM.
Next, `COc1ccc(-n2ccc3c(-n4ccc(-c5nccs5)n4)cc(C)nc32)c(C)c1`: 0.427 µM; `COc1ccc2c(c1)CCN2c1cc(-n2ccc(-c3nccs3)n2)cc(C)n1`: over 10 µM; `Cc1cc(-n2ccc(-c3nccs3)n2)c2[nH]c(=O)n(-c3ccc(C(F)(F)F)cc3C(F)(F)F)c2n1`: 8.32 µM.
For `COc1ccc(N2CCc3c(-n4ccc(-c5nccs5)n4)cc(C)nc32)c(C)c1`, the IC50 was 0.0537 µM.
Turning to `Cc1cc(-n2ccc(-c3nccs3)n2)c2c(n1)N(c1ccc(C(F)(F)F)cc1C(F)(F)F)CC2`, the IC50 was 0.0275 µM.
Next, `COc1ccc(N2CCc3c(-n4ccc(-c5nccs5)n4)cc(C)nc32)cc1`: 8.71 µM; `Cc1cc(-n2ccc(-c3nccs3)n2)c2c(n1)N(c1ccc(C#N)cc1F)CC2`: 2.04 µM.
For `Cc1cc(-n2ccc(-c3ccccn3)n2)c2c(n1)N(c1ccc(C#N)cc1C(F)(F)F)CC2` the value was 0.0933 µM; for `CCc1cc(C#N)ccc1N1CCc2c(-n3ccc(-c4nccs4)n3)cc(C)nc21`, 0.126 µM; for `Cc1cc(-n2ccc(-c3nccs3)n2)c2c(n1)N(c1ccc(F)cc1C)CC2`, 0.162 µM.
Consider `Cc1cc(-n2ccc(-n3cccn3)n2)c2c(n1)N(c1ccc(C#N)cc1C)CC2`, for which the IC50 is 0.316 µM.
`COc1ccc(N2CCc3c(-n4ccc(-c5nccs5)n4)cc(C)nc32)c(Cl)c1`: the IC50 was 0.0562 µM.
For `Cc1cc(-n2ccc(-n3cccn3)n2)c2c(n1)N(c1ccc(C#N)cc1C(F)(F)F)CC2` the value was 0.145 µM; for `COc1ccc(N2CCc3c(-n4ccc(-c5nccs5)n4)cc(C)nc32)c(OC)c1`, 0.174 µM.
Next, `Cc1cc(-n2ccc(-c3nccs3)n2)c2nc(C)n(-c3ccc(C(F)(F)F)cc3C(F)(F)F)c2n1`: over 10 µM; `COc1ccc(N2CCc3c(-n4ccc(-c5nccs5)n4)cc(C)nc32)c(C)n1`: 0.0603 µM; `Cc1cc(-n2ccc(-c3nccs3)n2)c2cnn(-c3ccc(C#N)cc3C)c2n1`: 2.75 µM.
`Cc1cc(-n2ccc(-c3nccs3)n2)c2c(n1)N(c1ccc(C(F)(F)F)cc1C(F)(F)F)S(=O)(=O)C2`: the IC50 was over 10 µM.
Next, `Cc1cc(-n2ccc(-n3cccn3)n2)c2c(n1)N(c1ccc(C#N)cc1Cl)CC2`: 0.115 µM; `Cc1cc(-n2ccc(-c3nccs3)n2)c2c(n1)N(c1ccc(S(C)(=O)=O)cc1Cl)CC2`: 2.34 µM; `COc1ccc(N2CCc3c(-n4ccc(-c5nccs5)n4)cc(C)nc32)c(C(F)F)c1`: 0.0347 µM.
For `Cc1cc(-n2ccc(-c3nccs3)n2)c2c(n1)N(c1ccc(C#N)cc1Cl)CC2` the value was 0.229 µM.
